Reference: patent publication US10238688B2, “Combination therapies for bladder cancer” (GENEDIA BIOTECH CO. LTD., priority 2015, dated 2019)

What was measured:
[1] = test system: MAPK/ERK pathway; assay: Cignal Finder dual-luciferase pathway reporter, MAPK/ERK; assay type: cell-based, human; details: for Relative activity, MAPK/ERK reporter: luc/Renluc relative to negative control reporter, single drug at 4 folds vs EH/Ci/Mi combination
Method: (§1) The pathway analysis was performed with Qiagen's Cignal Finder Pathway Reporter Array systems according to the manufacturer's instructions. The pathway-focused dual-luciferase reporter construct was a mixture of an inducible transcription factor responsive firefly luciferase reporter and constitutively expressing renilla construct. Transcriptional response element (TRE) sequence response elements to each specific transcriptional factor triggered by the different signaling pathways are positioned before the TATA box of firefly luciferase reporter gene. The extent of activity of the reporter reflects the level of activity of the particular signaling pathway. CMV controlled renilla expression vector is co-transfected into the cell as an internal control. Non-inducible reporter construct that lacks the transcriptional factor binding sequence and could not be induced by any transcription factors is used as a negative control. Cells transfected with CMV directed firefly luciferase reporter gene serve as a positive control. Briefly, cells seeded in 6-well plates were transfected with Cignal finder pathway arrays according to the manufacturer's instructions (Qiagen). Then cells were seeded onto 96-well plates. Ci (6000 ng/mL), Mi (800 ng/mL), or EH (1000 ng/mL) and Ci/Mi/EH combination (Ci, 1500 ng/mL, Mi, 800 ng/mL and EH, 1000 ng/m L) were then added to the cells 24 h post-transfection. After 6 h of incubation with the different drugs at 37° C., cells were lysed and a dual luciferase assay (for firefly and renilla luciferase) was performed using a PromegaGloMax 20/20 illuminometer. The firefly luciferase activities were normalized over the renilla luciferase activities after background activity determined by luciferase activities of negative controls was subtracted. A triple test of cell survival under these drug doses was also performed by MTT assay following 18 h incubation at 37° C. […]

[2] = test system: SCaBER; assay: MTT cell survival / IC50, SCaBER squamous carcinoma cells; assay type: cell-based, human
Method: (§2) The clinical grade of the chemotherapeutics (NCI Dictionary of Cancer Terms) was provided by the First Affiliated Hospital of Harbin Medical University: Pirarubicin (Pi, Wanle, Shenzhen), Paclitaxel (Pa, Taiji, Sichuan), Adriamycin (Ad, Pfizer, Jiangsu), Epirubicin Hydrochloride (EH, Haizheng, Zhejiang), Hydroxycamptothecin (Hy, Lishizhen, Hubei), Cisplatin (Ci, Haosen, Jiangsu), Gemcitabine (Ge, Haosen, Jiangsu) and Mitomycin (Mi, Haizheng, Zhejiang). The drug induced cell death was determined by a thiazolyl […] (MTT, 490 nm reading) based cell proliferation assay in the cultured cells following treatment by various concentrations of drugs for 72 hours. The relative chemoresistance to each drug of all cell lines was calculated with the lowest IC50 as a reference. The overall chemoresistance of each cell line was described as “chemoresistance index”, the numerator of the total relative IC50 to all the drugs over the number of drugs to rank the overall resistance state of each cell line to the six chemotherapeutics collectively.
(§3) The relative IC50 (fold) of each drug of all nine cell lines was normalized to the lowest IC50 in the most sensitive cell line (FIG. 2G), to describe the single drug resistance of cell lines. The overall chemoresistance of each cell line, a “chemoresistance index” (the numerator of the total relative IC50 over the number of drugs) (FIG. 2G) were calculated to rank the overall resistance state of each cell line to this six chemotherapeutics.

[3] = test system: Hypoxia pathway; assay: Cignal Finder dual-luciferase pathway reporter, Hypoxia; assay type: cell-based, human; parameters: key to Relative activity, Hypoxia reporter: firefly/renilla ratio, background (negative control) subtracted; details: for Relative activity, Hypoxia reporter: luc/Renluc relative to negative control reporter, single drug at 4 folds vs EH/Ci/Mi combination
Method: as §1

[4] = test system: Notch pathway; assay: Cignal Finder dual-luciferase pathway reporter, Notch; assay type: cell-based, human; parameters: key to Relative activity, Notch reporter: firefly/renilla ratio, background (negative control) subtracted; details: for Relative activity, Notch reporter: luc/Renluc relative to negative control reporter, single drug at 4 folds vs EH/Ci/Mi combination;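 for digitalized pathway activity, Notch: code −1 means repressed below 0.5-fold of 5637 cells or no-drug control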
Method: as §1

[5] = test system: ER Stress pathway; assay: Cignal Finder dual-luciferase pathway reporter, ER Stress; assay type: cell-based, human; details: for Relative activity, ER Stress reporter: luc/Renluc relative to negative control reporter, single drug at 4 folds vs EH/Ci/Mi combination
Method: as §1

[6] = test system: T24; assay: MTT cell survival / IC50, T24 cells; assay type: cell-based, human
Method: as §2, §3
(§4) Twenty six-drug combinations at the indicated doses were initially generated through a random number generator (using MATLAB MathWorks©, Natick, Mass., U.S.) (The upper half of Table 1). The cell survival (% over the not drug control) of treated cells was determined and then used for a calculation of the average cumulative cell survival (%, ACS: the sum of cell survival (%) per combination divided by the number of cell lines tested). ACS<30% was used to separate the effective from the not-effective combinations.

[7] = test system: Biu87; assay: MTT cell survival / IC50, Biu87 cells; assay type: cell-based, human
Method: as §2, §3, §4

[8] = test system: SV-HUC-1; assay type: cell-based
Method: as §2, §3

[9] = Table S3, ng/ml: Pi 40, Pa 160, EH 250, Ci 1500, Mi 200, 1=Ci/Mi, 2=EH/Ci/Mi, 3=Pa/Ci/Mi, 4=Pi/Ci/Mi
[10] = ng/ml: EH 1000, Ci 6000, Mi 800, Pi 160, Pa 640, Ge 20, EH/Ci/Mi regimen

## N.N.[Cl][Pt][Cl] [Ci, (SP-4-2)-diamminedichloroplatinum(II)]
[1]; 5637 cells
  relative drug trigged pathway activity over the no-drug level, MAPK/ERK: 1.74 fold
  Relative activity, MAPK/ERK reporter: 90.77
[1]; Biu87 cells
  digitalized pathway activity, MAPK/ERK: 0 (null (0) if neither of the above holds)
  relative drug trigged pathway activity over the no-drug level, MAPK/ERK: 0.66 fold
  Relative activity, MAPK/ERK reporter: 321.19
[1]; H-bc cells
  digitalized pathway activity, MAPK/ERK: 0 (null (0) if neither of the above holds)
  relative drug trigged pathway activity over the no-drug level, MAPK/ERK: 0.71 fold
  Relative activity, MAPK/ERK reporter: 340.57
[1]; SV-HUC-1 cells
  relative drug trigged pathway activity over the no-drug level, MAPK/ERK: 1.65 fold
  Relative activity, MAPK/ERK reporter: 389.00
[1]; UM-UC-3 cells
  digitalized pathway activity, MAPK/ERK: 0 (null (0) if neither of the above holds)
  Relative activity, MAPK/ERK reporter: 72.05
[1]; Um-Uc-3 cells
  relative drug trigged pathway activity over the no-drug level, MAPK/ERK: 0.51 fold
[2]; [9]
  Cell survival (%): 22.05%
[2]; [10]
  Single drug 4X Cell Survival (%): 5.58%
[3]; 5637 cells
  relative drug trigged pathway activity over the no-drug level, Hypoxia: 1.64 fold
  Relative activity, Hypoxia reporter: 37.36
[3]; Biu87 cells
  digitalized pathway activity, Hypoxia: 0 (null (0) if neither of the above holds)
  relative drug trigged pathway activity over the no-drug level, Hypoxia: 1.32 fold
  Relative activity, Hypoxia reporter: 10.01
[3]; H-bc cells
  relative drug trigged pathway activity over the no-drug level, Hypoxia: 0.39 fold
  Relative activity, Hypoxia reporter: 49.11
[3]; SV-HUC-1 cells
  digitalized pathway activity, Hypoxia: 0 (null (0) if neither of the above holds)
  relative drug trigged pathway activity over the no-drug level, Hypoxia: 1.19 fold
  Relative activity, Hypoxia reporter: 30.20
[3]; UM-UC-3 cells
  digitalized pathway activity, Hypoxia: 0 (null (0) if neither of the above holds)
  Relative activity, Hypoxia reporter: 41.68
[3]; Um-Uc-3 cells
  relative drug trigged pathway activity over the no-drug level, Hypoxia: 0.66 fold
[4]; 5637 cells
  digitalized pathway activity, Notch: 0 (null (0) if neither of the above holds)
  relative drug trigged pathway activity over the no-drug level, Notch: 1.39 fold
  Relative activity, Notch reporter: 1.41
[4]; Biu87 cells
  relative drug trigged pathway activity over the no-drug level, Notch: 0.5 fold
  Relative activity, Notch reporter: 2.23
[4]; H-bc cells
  relative drug trigged pathway activity over the no-drug level, Notch: 0.31 fold
  Relative activity, Notch reporter: 1.60
[4]; SV-HUC-1 cells
  digitalized pathway activity, Notch: 0 (null (0) if neither of the above holds)
  relative drug trigged pathway activity over the no-drug level, Notch: 1.44 fold
  Relative activity, Notch reporter: 6.20
[4]; UM-UC-3 cells
  digitalized pathway activity, Notch: 0 (null (0) if neither of the above holds)
  Relative activity, Notch reporter: 4.99
[4]; Um-Uc-3 cells
  relative drug trigged pathway activity over the no-drug level, Notch: 1.01 fold
[5]; 5637 cells
  relative drug trigged pathway activity over the no-drug level, ER Stress: 1.82 fold
  Relative activity, ER Stress reporter: 47.45
[5]; Biu87 cells
  digitalized pathway activity, ER Stress: 0 (null (0) if neither of the above holds)
  relative drug trigged pathway activity over the no-drug level, ER Stress: 0.83 fold
  Relative activity, ER Stress reporter: 18.10
[5]; H-bc cells
  digitalized pathway activity, ER Stress: 0 (null (0) if neither of the above holds)
  relative drug trigged pathway activity over the no-drug level, ER Stress: 0.82 fold
  Relative activity, ER Stress reporter: 101.61
[5]; SV-HUC-1 cells
  digitalized pathway activity, ER Stress: 0 (null (0) if neither of the above holds)
  relative drug trigged pathway activity over the no-drug level, ER Stress: 1.12 fold
  Relative activity, ER Stress reporter: 115.00
[5]; UM-UC-3 cells
  digitalized pathway activity, ER Stress: 0 (null (0) if neither of the above holds)
  Relative activity, ER Stress reporter: 67.50
[5]; Um-Uc-3 cells
  relative drug trigged pathway activity over the no-drug level, ER Stress: 0.83 fold
[6]; [9]
  Cell survival (%): 15.46%
[6]; [10]
  Single drug 4X Cell Survival (%): 10.49%
[7]; Biu87, Table S3, ng/ml: Pi 40, Pa 160, EH 250, Ci 1500, Mi 200, 1=Ci/Mi, 2=EH/Ci/Mi, 3=Pa/Ci/Mi, 4=Pi/Ci/Mi
  Cell survival (%): 20.94%
[7]; Biu87, ng/ml: EH 1000, Ci 6000, Mi 800, Pi 160, Pa 640, Ge 20, EH/Ci/Mi regimen
  Single drug 4X Cell Survival (%): 12.93%
[7]; Biu87 cells, Table 4 (A)
  Cell survival 72 hours: 12.93%
[7]; Biu87 cells, Table 4 (B)
  ACS (%): 12.93%
[8]; SV-HUC-1, ng/ml: EH 1000, Ci 6000, Mi 800, Pi 160, Pa 640, Ge 20, EH/Ci/Mi regimen
  Single drug 4X Cell Survival (%): 26.21%
[8]; SV-HUC-1 cells, Table 4 (A)
  Cell survival 72 hours: 26.21%
[8]; SV-HUC-1 cells, Table 4 (B)
  ACS (%): 26.21%
